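All cell lines were grown in 96-well plates and treated with compound for 48 hours. Here, GI50 denotes the concentration required for 50% inhibition of growth. At the TGI there is no net growth.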
Key:
Test in all cases: NCI tumour cell line growth inhibition, 48 h
UACC-62 melanoma = test system: UACC-62 melanoma
SK-MEL-28 melanoma = test system: SK-MEL-28 melanoma
SK-MEL-2 melanoma = test system: SK-MEL-2 melanoma
M14 melanoma = test system: M14 melanoma
UACC-257 melanoma = test system: UACC-257 melanoma
SF-539 CNS = test system: SF-539 CNS
OVCAR-5 ovarian = test system: OVCAR-5 ovarian
MALME-3M melanoma = test system: MALME-3M melanoma
TK-10 renal = test system: TK-10 renal
T-47D breast = test system: T-47D breast
RPMI-8226 leukemia = test system: RPMI-8226 leukemia
BT-549 breast = test system: BT-549 breast
NCI-H23 lung = test system: NCI-H23 lung
MCF7 breast = test system: MCF7 breast
DU-145 prostate = test system: DU-145 prostate
A498 renal = test system: A498 renal
A549 NSCLC = test system: A549 NSCLC
SN12C renal = test system: SN12C renal
KM12 colon = test system: KM12 colon
NCI-H522 lung = test system: NCI-H522 lung
COLO 205 colon = test system: COLO 205 colon
HT29 colon = test system: HT29 colon
HCC-2998 colon = test system: HCC-2998 colon
MDA-MB-435 = test system: MDA-MB-435
SNB-75 CNS = test system: SNB-75 CNS
OVCAR-3 ovarian = test system: OVCAR-3 ovarian
MDA-MB-231 breast = test system: MDA-MB-231 breast
SR leukemia = test system: SR leukemia
HS 578T breast = test system: HS 578T breast
HL-60(TB) leukemia = test system: HL-60(TB) leukemia
OVCAR-4 ovarian = test system: OVCAR-4 ovarian
K-562 leukemia = test system: K-562 leukemia
U251 CNS = test system: U251 CNS
EKVX NSCLC = test system: EKVX NSCLC
NCI-H460 lung = test system: NCI-H460 lung
HOP-92 NSCLC = test system: HOP-92 NSCLC
MOLT-4 leukemia = test system: MOLT-4 leukemia
SNB-19 CNS = test system: SNB-19 CNS
IGROV1 ovarian = test system: IGROV1 ovarian
NCI-H226 lung = test system: NCI-H226 lung
SW-620 colon = test system: SW-620 colon
CCRF-CEM leukemia = test system: CCRF-CEM leukemia
SK-MEL-5 melanoma = test system: SK-MEL-5 melanoma
ACHN renal = test system: ACHN renal
SF-268 CNS = test system: SF-268 CNS
OVCAR-8 ovarian = test system: OVCAR-8 ovarian
LOX IMVI melanoma = test system: LOX IMVI melanoma
HCT-116 colon = test system: HCT-116 colon
RXF 393 renal = test system: RXF 393 renal
PC-3 prostate = test system: PC-3 prostate
HOP-62 NSCLC = test system: HOP-62 NSCLC
NCI/ADR-RES ovarian = test system: NCI/ADR-RES ovarian
HCT-15 colon = test system: HCT-15 colon
SK-OV-3 ovarian = test system: SK-OV-3 ovarian
786-0 renal = test system: 786-0 renal
SF-295 CNS = test system: SF-295 CNS
UO-31 renal = test system: UO-31 renal
CAKI-1 renal = test system: CAKI-1 renal

NC(=O)c1c(NC(=O)c2ccc(C(F)(F)F)cc2)sc2c1CCC(=O)C2
GI50 (UACC-62 melanoma): 758 nM
TGI (UACC-62 melanoma): 2350 nM
GI50 (SK-MEL-28 melanoma): 1140 nM
TGI (SK-MEL-28 melanoma): 2820 nM
GI50 (SK-MEL-2 melanoma): 3210 nM
TGI (SK-MEL-2 melanoma): 11100 nM
GI50 (M14 melanoma): 1860 nM
TGI (M14 melanoma): 4560 nM
GI50 (UACC-257 melanoma): 1980 nM
TGI (UACC-257 melanoma): 5900 nM
GI50 (SF-539 CNS): 500 nM
TGI (SF-539 CNS): 1810 nM
GI50 (OVCAR-5 ovarian): 1890 nM
TGI (OVCAR-5 ovarian): 6080 nM
GI50 (MALME-3M melanoma): 1080 nM
TGI (MALME-3M melanoma): 3100 nM
GI50 (TK-10 renal): 1660 nM
TGI (TK-10 renal): 11200 nM
GI50 (T-47D breast): 545 nM
TGI (T-47D breast): 3340 nM
GI50 (RPMI-8226 leukemia): 279 nM
TGI (RPMI-8226 leukemia): 1260 nM
GI50 (BT-549 breast): 569 nM
TGI (BT-549 breast): 7210 nM
GI50 (NCI-H23 lung): 887 nM
TGI (NCI-H23 lung): 9090 nM
GI50 (MCF7 breast): 1370 nM
TGI (MCF7 breast): 10100 nM
GI50 (DU-145 prostate): 4810 nM
TGI (DU-145 prostate): > 100000 nM
GI50 (A498 renal): 5060 nM
TGI (A498 renal): 19200 nM
GI50 (A549 NSCLC): 3120 nM
TGI (A549 NSCLC): 15400 nM
GI50 (SN12C renal): 2230 nM
TGI (SN12C renal): 13200 nM
GI50 (KM12 colon): 1720 nM
TGI (KM12 colon): 7180 nM
GI50 (NCI-H522 lung): 613 nM
TGI (NCI-H522 lung): 2390 nM
GI50 (COLO 205 colon): 1550 nM
TGI (COLO 205 colon): 3930 nM
GI50 (HT29 colon): 1070 nM
TGI (HT29 colon): 5260 nM
GI50 (HCC-2998 colon): 2490 nM
TGI (HCC-2998 colon): 6950 nM
GI50 (MDA-MB-435): 1950 nM
TGI (MDA-MB-435): 4750 nM
GI50 (SNB-75 CNS): 1790 nM
TGI (SNB-75 CNS): 5950 nM
GI50 (OVCAR-3 ovarian): 575 nM
TGI (OVCAR-3 ovarian): 2470 nM
GI50 (MDA-MB-231 breast): 1020 nM
TGI (MDA-MB-231 breast): 3980 nM
GI50 (SR leukemia): 393 nM
TGI (SR leukemia): > 100000 nM
GI50 (HS 578T breast): 1890 nM
TGI (HS 578T breast): 19300 nM
GI50 (HL-60(TB) leukemia): 1350 nM
TGI (HL-60(TB) leukemia): 8060 nM
GI50 (OVCAR-4 ovarian): 1940 nM
TGI (OVCAR-4 ovarian): 4830 nM
GI50 (K-562 leukemia): 300 nM
TGI (K-562 leukemia): > 41300 nM
GI50 (U251 CNS): 426 nM
TGI (U251 CNS): 4670 nM
GI50 (EKVX NSCLC): 2420 nM
TGI (EKVX NSCLC): 8580 nM
GI50 (NCI-H460 lung): 3350 nM
TGI (NCI-H460 lung): 12800 nM
GI50 (HOP-92 NSCLC): 726 nM
TGI (HOP-92 NSCLC): 3470 nM
GI50 (MOLT-4 leukemia): 1070 nM
TGI (MOLT-4 leukemia): 8320 nM
GI50 (SNB-19 CNS): 1310 nM
TGI (SNB-19 CNS): 9920 nM
GI50 (IGROV1 ovarian): 1230 nM
TGI (IGROV1 ovarian): 4350 nM
GI50 (NCI-H226 lung): 2040 nM
TGI (NCI-H226 lung): 4980 nM
GI50 (SW-620 colon): 379 nM
TGI (SW-620 colon): 1960 nM
GI50 (CCRF-CEM leukemia): 266 nM
TGI (CCRF-CEM leukemia): 14000 nM
GI50 (SK-MEL-5 melanoma): 1730 nM
TGI (SK-MEL-5 melanoma): 3320 nM
GI50 (ACHN renal): 1250 nM
TGI (ACHN renal): 2530 nM
GI50 (SF-268 CNS): 1480 nM
TGI (SF-268 CNS): 14400 nM
GI50 (OVCAR-8 ovarian): 1850 nM
TGI (OVCAR-8 ovarian): 25000 nM
GI50 (LOX IMVI melanoma): 391 nM
TGI (LOX IMVI melanoma): 2240 nM
GI50 (HCT-116 colon): 369 nM
TGI (HCT-116 colon): 3550 nM
GI50 (RXF 393 renal): 874 nM
TGI (RXF 393 renal): 4240 nM
GI50 (PC-3 prostate): 316 nM
TGI (PC-3 prostate): 1860 nM
GI50 (HOP-62 NSCLC): 3550 nM
TGI (HOP-62 NSCLC): 17600 nM
GI50 (NCI/ADR-RES ovarian): 1480 nM
TGI (NCI/ADR-RES ovarian): 7490 nM
GI50 (HCT-15 colon): 699 nM
TGI (HCT-15 colon): 2810 nM
GI50 (SK-OV-3 ovarian): 3030 nM
TGI (SK-OV-3 ovarian): > 28600 nM
GI50 (786-0 renal): 3910 nM
TGI (786-0 renal): 32000 nM
GI50 (SF-295 CNS): 2170 nM
TGI (SF-295 CNS): 6010 nM
GI50 (UO-31 renal): 645 nM
TGI (UO-31 renal): 1900 nM
GI50 (CAKI-1 renal): 750 nM
TGI (CAKI-1 renal): 2430 nM

— PubChem BioAssay (NCI)
